Data reported in patent US4981873A, “Substituted sulphonamides, pharmaceuticals thereof and methods of using them” (Boehringer Mannheim GmbH, priority 1988, dated 1991).
Read-outs that look alike come from different tables or passages of the source.

Columns and labels:
[1] = system: U 46619-Induced Pulmonary Embolism; assay: Preventing the U 46619-induced pulmonary embolism (survival rate of mouse); format: in vivo; conditions: male NMRI mice, lethal U 46619 injected i.v. (tail vein) after 4 hours; for Survival Rate of Mouse 1 mg/kg, 4 h in %: 1 mg/kg by stomach tube; for responders at 25 mg/kg: Mus musculus, iv
Method: 2. Preventing the U 46619-Induced Pulmonary Embolism
Male NMRI mice, with a body weight of 25 g. are used. The test substance is suspended in 1% methylcellulose and administered to the experimental animals with the help of a stomach tube. The provocation test consists of injecting the lethal dose (800-1000/μg/kg) of the thromboxane mimetic (U 46619 of the Upjohn Co.) rapidly into the tail vein. The duration of the specific antagonistic effect is tested by pretreating the animals with 25 mg or 1 mg/kg of the different test substances and injecting U 46619 after 4 hours. The survival rate indicates how many of the animals used have survived the injection of the thromboxane mimetic.

[2] = system: thrombocyte aggregation (U 46619-induced); assay: TX antagonistic effect: inhibition of U 46619-induced thrombocyte aggregation in platelet-rich plasma (Born and Cross); format: cell-based; conditions: human platelet-rich plasma, citrate, aggregation followed over 5 minutes, read-out: Thromboxane Aggregation IC50
Source text: 1. TX Antagonistic Effect of Human […]
The thrombocyte aggregation is investigated by the method of Born and Cross (J. Physiol. 168, 178 (1963) in platelet-rich plasma of healthy blood donors. To inhibit clotting, the blood is mixed with 3.2% citrate in a ratio by volume of 1:9.
To induce thrombocyte aggregation, U 46619 (Upjohn & Co., Kalamazoo, USA), which is a stable analog of the prostaglandin endoperoxide […], is used. U 46619 was characterized as a selective thromboxane mimetic (Coleman et al., Brit. J. Pharmacol. 68, 127 P., 1980).
The aggregation test is carried out in a 4-channel aggregometer (Profiler® of the Bio/Data Co., USA). The course of the aggregation is followed over a period of 5 minutes. At the end of the test, the degree of aggregation attained is printed out. These values, which are obtained in the presence of different concentrations of the substance to be tested, are used for the determination of the IC50 for the TX antagonistic effect. The effectiveness varies inversely with the IC50 value.

Compound	Survival Rate of Mouse 1 mg/kg, 4 h in % [1] [%]	Survival Rate of Mouse 25 mg/kg, 4 h in % ([1]; 25 mg/kg by stomach tube) [%]	IC50 [2] [µM]	responders at 25 mg/kg ([1]; 25 mg/kg by stomach tube) [%]	IC50 ([2]; 5 min) [µM]
9-(4-Chlorobenzenesulphonamido)-3-thianonanoic acid [Example 6]	100	80	3.4	–	–
O=C(O)CSCCCCCCNS(=O)(=O)c1ccc(Cl)cc1 [Example 4, 9-(4-Chlorobenzenesulphonamido)-3-thianonanoic acid]	–	–	–	40	1.3
O=C(O)C[S+]([O-])CCCCCCNS(=O)(=O)c1ccc(Cl)cc1 (stereo not shown) [Example 5, 9-(4-Chlorobenzenesulphonamido)-3-thianonanoic acid 3-oxide]	–	–	–	40	2.1
O=C(O)CSCCC/C=C\CNS(=O)(=O)c1ccc(Cl)cc1 [Example 7, (Z)-9-(4-Chlorobenzenesulphonamido)-3-thia-7-enenonanoic acid]	60	–	–	100	1.4
CC(C)(CCSCCNS(=O)(=O)c1ccc(Cl)cc1)C(=O)O [Example 8, 7-(4-Chlorobenzenesulphonamido)-2,2-dimethyl-5-thiaheptanoic acid]	–	–	–	40	13
CC(C)(CCSCCNS(=O)(=O)c1ccc(Cl)cc1)CC(=O)O [Example 8.3, 8-(4-Chlorobenzenesulphonamido)-3,3-dimethyl-6-thiaoctanoic acid]	–	–	–	40	5
CC(C)(SCCCCCNS(=O)(=O)c1ccc(Cl)cc1)C(=O)O [Example 9, 8-(4-Chlorobenzenesulphonamido)-2,2-dimethyl-3-thiaoctanoic acid]	–	–	–	40	5.2
COc1ccc(S(=O)(=O)NCCCCCSC(C)(C)C(=O)O)cc1 [Example 9.2, 8-(4-Methoxybenzenesulphonamido)-2,2-dimethyl-3-thiaoctanoic acid]	20	–	–	60	100
CC(C)(CCCSCCCNS(=O)(=O)c1ccc(Cl)cc1)C(=O)O [Example 11, 9-(4-Chlorobenzenesulphonamido)-2,2-dimethyl-6-thianonanoic acid]	0	–	–	80	60
CC(C)(CCSCCCNS(=O)(=O)c1ccc(Cl)cc1)CC(=O)O [Example 11.2, 9-(4-Chlorobenzenesulphonamido)-3,3-dimethyl-6-thianonanoic acid]	0	–	–	80	100
